# Test results reported in EP1093379B1, “USE OF INHIBITORS OF PROTEIN KINASE C EPSILON TO TREAT PAIN” (The Regents of the University of California, priority 1998, dated 2007).
# Where two headings read alike, the source gives them in different places.
# Key:
# [1] = test system: PGE2-induced hyperalgesia; conditions: cited from earlier work; for Percentage decrease in nociceptive threshold in response to PGE2: PGE2 100 ng alone or with DAMGO, SQ22536, Rp-cAMPs (1 µg), data from Khasar 1995 / Taiwo and Levine 1991
# [2] = test system: TTX-RINa; format: cell-based, rat; conditions: for effect on epinephrine-induced potentiation of TTX-RINa: 2µM propranolol, 5µM phentolamine, 100µM Rp-cAMPs, 100µM BIM
# [3] = test system: epinephrine-induced hyperalgesia; assay: Epinephrine-induced mechanical hyperalgesia, paw-withdrawal threshold (Ugo Basile analgesymeter); format: in vivo, rat; conditions: for Percentage decrease in nociceptive threshold in response to epinephrine: epinephrine 100 ng alone or with DAMGO, SQ22536, BIM, Rp-cAMPs (all 1 µg) or WIPTIDE (0.1 µg), large value = more hyperalgesia; for effect on epinephrine-induced hyperalgesia: intradermal, rat hindpaw, inhibitors 1 µg (WIPTIDE 100 ng) 15 minutes prior to epinephrine, DAMGO co-injected, antagonist doses not given
# Description: (§1) The roles of PKC, protein kinase A ("PKA") and the µ-opioid receptor in mediating epinephrine-induced hyperalgesia were assessed by measuring the effects of: Rp-adenosine 3', 5'-cyclic monophosphate ("Rp-cAMPs") and WIPTIDE, both inhibitors of PKA; SQ22536, an inhibitor of adenylyl cyclase, an enzyme activated by PKA; bisindolymaleimide ("BIM"), a nonselective inhibitor of PKC isozymes; and [D-Ala^2,N-Me-Phe^4,Gly^5-ol]-enkephalin ("DAMGO"), p-opioid receptor agonist. The dose for each inhibitor was 1µg, except for WIPTIDE, which was administered in a 100ng dose. […] A large numeric value means more hyperalgesia.
# [4] = test system: prolonged PGE2-induced hyperalgesia; assay: Chronic inflammatory pain model: prolonged hyperalgesia in carrageenan-sensitized rats (Randall-Selitto paw-withdrawal test); format: in vivo; conditions: for duration of hyperalgesia in untreated rats: rats that have not received carrageenan injections; for duration of hyperalgesia in carrageenan-sensitized rats: seen up to three weeks after the carrageenan injection
# Excerpt: In order to investigate the role, if any, of PKCε in chronic inflammatory pain, the following model system for chronic inflammatory pain was developed. Rats received intradermal hind paw injections of carrageenan, an inflammatory agent. […] This was considered an acute response to the carrageenan-induced inflammation. Although administration of Prostaglandin E2 ("PGE2"), 5-hydroxytryptamine ("5-HT," serotonin) or CGS-21680 (an adenosine A2-selective receptor agonist) normally causes untreated rats (that is, rats that have not received carrageenan injections) to experience hyperalgesia lasting up to 6 hours, the hyperalgesia experienced by carrageenan-sensitized rats following administration of any one of these substances lasted up to 24 hours.
# The prolonged PGE2-induced hyperalgesia normally seen in carrageenan-sensitized rats was inhibited by administration of BIM or εV1-2.
# To examine whether protein kinase C modulates the processes by which a brief inflammatory event causes prolonged hyperalgesia many days later, rats received carrageenan and 1µg BIM injections at the same time. Hyperalgesia was measured 72 hours later, when the rats were treated PGE2. […] Therefore, administration of an inhibitor of PKC either at approximately the same time as the inflammatory agent giving rise to chronic, prolonged hyperalgesia or at about the same time as the hyperalgesia-inducing stimulus can lessen such chronic hyperalgesia.
# [5] = test system: mechanical nociceptive threshold; assay: von Frey hair paw-withdrawal frequency in wild-type mice; format: in vivo; conditions: 100ng by intraplantar injection prior to VFH stimulation (4, 6.9 or 14.8 grams)
# Description: Mechanical, thermal and chemical nociception were evaluated in wild-type and PKCε-mutant mice.
# [6] = test system: small diameter DRG neurons
# [7] = test system: epinephrine-induced hyperalgesia; assay: Epinephrine-induced mechanical hyperalgesia, paw-withdrawal threshold (Ugo Basile analgesymeter); format: in vivo, rat
# [8] = test system: isoproterenol-induced hyperalgesia; assay: Isoproterenol-induced mechanical hyperalgesia, paw-withdrawal threshold; format: in vivo, rat; conditions: for effect on isoproterenol-induced hyperalgesia: intradermal, BIM 1 µg, WIPTIDE 100 ng, propranolol dose not given
# Description: To examine the role of β-AR in epinephrine-induced hyperalgesia, propranolol, a β-AR antagonist, and isoproterenol, a selective β-AR agonist, were administered by intradermal injection.
# as §1
# [9] = test system: PGE2-induced hyperalgesia; conditions: PGE2 100 ng alone or with DAMGO, SQ22536, Rp-cAMPs (1 µg); data from Khasar 1995 / Taiwo and Levine 1991; cited from earlier work
# [10] = test system: PGE2-induced hyperalgesia; assay: PGE2-induced mechanical hyperalgesia, paw-withdrawal threshold; format: in vivo, rat
# Description: The roles of PKC, protein kinase A ("PKA") and the µ-opioid receptor in mediating epinephrine-induced hyperalgesia were assessed by measuring the effects of: Rp-adenosine 3', 5'-cyclic monophosphate ("Rp-cAMPs") and WIPTIDE, both inhibitors of PKA; SQ22536, an inhibitor of adenylyl cyclase, an enzyme activated by PKA; bisindolymaleimide ("BIM"), a nonselective inhibitor of PKC isozymes; and [D-Ala^2,N-Me-Phe^4,Gly^5-ol]-enkephalin ("DAMGO"), p-opioid receptor agonist. The dose for each inhibitor was 1µg, except for WIPTIDE, which was administered in a 100ng dose. DAMGO was co-injected with epinephrine whereas the other inhibitors were applied 15 minutes prior to epinephrine injection. […] TABLE 1: Percentage decrease in nociceptive threshold in response to epinephrine, PGE2 or isoproterenol (each 100 ng) and effects of DAMGO, SQ22536, BIM, Rp-cAMPs (all 1 µg) or WIPTIDE (0.1 µg). A large numeric value means more hyperalgesia.
# For mechanical nociceptive testing, the nociceptive flexion reflex was quantified using an Ugo Basile analgesymeter that applies a constantly increasing force measured in grams (Stoelting, Chicago, IL; K. O. Aley, J. D. Levine, J. Neurosci. 17, 8018-23 (1997)). The mean basal mechanical threshold for rats used in these experiments was 105.3+/-2.8 grams. The effects of hyperalgesia-inducing agents epinephrine (100ng) and PGE2 (100ng) on mechanical nociceptive thresholds were determined by measuring paw withdrawal frequencies at 15, 20, and 25 minutes after administration of the hyperalgesic agent and then calculating the mean of these three readings.
# [11] = test system: formalin-induced hyperalgesia; conditions: similar dose of phentolamine; earlier studies; cited from earlier work
# [12] = test system: basal paw threshold; conditions: similar dose of phentolamine, normal rat; earlier studies; cited from earlier work
# [13] = Rotorod analysis of motor deficits; format: in vivo, rat; conditions: vincristine 100 µg/kg intravenously daily
# Description: (§2) Humans undergoing chemotherapy frequently experience hyperalgesia. Vincristine is a chemotherapeutic drug known to cause such hyperalgesia, and a rat model of vincristine-induced hyperalgesia was established as follows. Vincristine (100 µg/kg in saline; Sigma Chemical Catalog) was administered intravenously daily to each of 32 rats over a period of two weeks.
# [14] = test system: vincristine-induced hyperalgesia; assay: Vincristine-induced hyperalgesia model, mechanical stimuli (Ugo Basile analgesymeter); format: in vivo, rat; conditions: vincristine 100 µg/kg intravenously daily; after the second day
# Description: as §2
# To determine whether administration of an inhibitor of PKCε would lessen vincristine-induced hyperalgesia in the rat model described above, on the 13th day of vincristine treatment, rats received no treatment (n= 16) or intradermal injections of sterile water followed by intradermal injections of either 1µg εV1-2, a PKCε inhibitory peptide (n=8; labeled "PKCεI" on Figure 12A), or 1µg S-VεV1-2, a scrambled version of the εV1-2 peptide (n=8; labeled "PCKεI SCR" on Figure 12A), 20-30 minutes before administration of a mechanical stimulus.
# [15] = after 1µg epinephrine injection
# [16] = 1µM epinephrine with 100µM BIM v. epinephrine alone
compound,measurement,setting,value
"Rp-adenosine 3', 5'-cyclic monophosphate [Rp-cAMPs]",Percentage decrease in nociceptive threshold in response to PGE2,[1],3.1 ± 5.2 %
same,effect on epinephrine-induced potentiation of TTX-RINa,[2]; 1µM epinephrine,abolished
same,Percentage decrease in nociceptive threshold in response to epinephrine,[3],13.9 ± 4.6 %
"CCCCC[C@H](O)/C=C/[C@H]1[C@H](O)CC(=O)[C@@H]1C/C=C\CCCC(=O)O [PGE2, prostaglandin E2]",duration of hyperalgesia in untreated rats,[4],up to 6 hours
same,duration of hyperalgesia in carrageenan-sensitized rats,[4],up to 24 hours
same,Percentage decrease in nociceptive threshold in response to PGE2,[1],33.6±1.9%
same,percent-withdrawal response to VFH stimulus,[5],dramatically increased
CCNC(=O)[C@H]1O[C@@H](n2cnc3c(N)nc(NCCc4ccc(CCC(=O)O)cc4)nc32)[C@H](O)[C@@H]1O [CGS-21680],duration of hyperalgesia in untreated rats,[4],up to 6 hours
same,duration of hyperalgesia in carrageenan-sensitized rats,[4],up to 24 hours
CNC[C@H](O)c1ccc(O)c(O)c1 [epinephrine],mean resting potentials,[6]; 1µM epinephrine,unaffected
same,average number of action potentials generated in response to the current ramp-and-plateau,"[6]; 1µM epinephrine, five minutes or more after start of perfusion, 1.7±0.2 before, 11 neurons",5.3±0.9
same,neurons showing a decrease in spike latency of at least 50ms,"[6]; 1µM epinephrine, 5 of 11 neurons",45%
same,neurons showing an increase in spike number,"[6]; 1µM epinephrine, nine of 11 neurons",81%
same,mean latency from the start of current injection to the peak of the first spike,"[6]; following 1µM epinephrine perfusion, 278±42ms without epinephrine, n=11",189 ± 21 ms
same,percent-withdrawal response to VFH stimulus,[5],dramatically increased
same,duration of epinephrine-induced hyperalgesia,[7]; [15],approximately 2 hours
same,onset latency of epinephrine-induced hyperalgesia (significant),[7]; [15],2 min
same,time to peak effect of hyperalgesia,[7]; [15],≤ 5 min
same,Percentage decrease in nociceptive threshold in response to epinephrine,"[7]; epinephrine 100 ng alone or with DAMGO, SQ22536, BIM, Rp-cAMPs (all 1 µg) or WIPTIDE (0.1 µg), large value = more hyperalgesia",29.6±2.1%
same,threshold reduction (mechanical nociceptive threshold),"[7]; epinephrine 100ng only, or sterile water and 1µg scrambled peptide prior to epinephrine, mean of 15, 20, 25 minutes, n=8",25-30%
same,threshold at which the rat withdrew the paw,"[7]; intradermal injections of 1ng to 1µg epinephrine, dorsal surface of hindpaw",dose-dependent decrease
same,mean peak current increase,[2]; [16],49%
same,number of neurons responsive to epinephrine,[2]; [16],8 out of 11
same,neurons with an increase in TTX-RINa,"[2]; 1µM epinephrine, 14 out of 21 neurons",67%
same,shift of current-voltage plots for activation,"[2]; 1µM epinephrine, hyperpolarized direction",approximately 10 mV
same,effect on TTX-RINa,"[2]; 1µM epinephrine, isoproterenol application",marked potentiation
"NCCc1c[nH]c2ccc(O)cc12 [5-HT, 5-hydroxytryptamine]",duration of hyperalgesia in untreated rats,[4],up to 6 hours
same,duration of hyperalgesia in carrageenan-sensitized rats,[4],up to 24 hours
CC(C)NCC(O)COc1cccc2ccccc12 (centres unmarked) [propranolol],effect on epinephrine-induced potentiation of TTX-RINa,[2]; 1µM epinephrine,eliminated this potentiation
same,effect on isoproterenol-induced hyperalgesia,[8],significantly attenuated
same,effect on epinephrine-induced hyperalgesia,[3],significantly attenuated
"[D-Ala^2,N-Me-Phe^4,Gly^5-ol]-enkephalin [DAMGO]",Percentage decrease in nociceptive threshold in response to PGE2,[9],11.1 ± 4.0 %
same,Percentage decrease in nociceptive threshold in response to epinephrine,[3],11.5 ± 3.1 %
WIPTIDE,effect on isoproterenol-induced hyperalgesia,[8],almost completely abolished
same,Percentage decrease in nociceptive threshold in response to isoproterenol,[8]; isoproterenol 100 ng alone or with BIM (1 µg) or WIPTIDE (0.1 µg),1 ± 2.8 %
same,Percentage decrease in nociceptive threshold in response to PGE2,[10]; PGE2 100 ng with BIM (1 µg) or WIPTIDE (0.1 µg),9.4 ± 3.1 %
same,effect on PGE2-induced hyperalgesia,"[10]; same dose as for epinephrine: BIM 1 µg, WIPTIDE 100 ng",significantly attenuated
same,Percentage decrease in nociceptive threshold in response to epinephrine,[3],10.9 ± 3.6 %
Cc1ccc(N(CC2=NCCN2)c2cccc(O)c2)cc1 [phentolamine],effect on ability of rolipram to prolong PGE2-induced hyperalgesia,"[1]; similar dose of phentolamine, earlier studies",inhibited
same,effect on epinephrine-induced potentiation of TTX-RINa,[2]; 1µM epinephrine,did not
same,effect on formalin-induced hyperalgesia,[11],significantly reversed
same,effect on epinephrine-induced hyperalgesia,[3],did not significantly affect
same,effect on basal paw threshold,[12],no effect
CC(C)NCC(O)c1ccc(O)c(O)c1 (centres unmarked) [isoproterenol],hyperalgesia produced in the absence of epinephrine,[8]; intradermal injection of isoproterenol,dose-dependent hyperalgesia
COc1ccc2c(c1)c(CC(=O)O)c(C)n2C(=O)c1ccc(Cl)cc1 [indomethacin],effect on the ability of epinephrine to induce hyperalgesia,"[7]; continuous treatment with 4mg/kg of indomethacin, n=8",Neither indomethacin treatment nor sympathectomy had any effect
CC[C@]1(O)C[C@H]2CN(CCc3c([nH]c4ccccc34)[C@@](C(=O)OC)(c3cc4c(cc3OC)N(C=O)[C@H]3[C@@](O)(C(=O)OC)[C@H](OC(C)=O)[C@]5(CC)C=CCN6CC[C@]43[C@@H]65)C2)C1 [Vincristine],motor deficits (Rotorod analysis),[13],did not show any significant motor deficits
same,mechanical nociceptive thresholds of vincristine-treated rats,[14],acute dose-dependent decrease in mechanical nociceptive thresholds
